Broadly, the Kd is the equilibrium constant for the complex coming apart. Usually IC50 stands for the concentration that gives 50% inhibition.

In one assay the target is T1, CD206 CRD4 (Homo sapiens, UniProt P22897).
T1 construct: Carbohydrate recognition domain 4 of CD206; made in house
T1 sequence (P22897 655-778 limits assumed): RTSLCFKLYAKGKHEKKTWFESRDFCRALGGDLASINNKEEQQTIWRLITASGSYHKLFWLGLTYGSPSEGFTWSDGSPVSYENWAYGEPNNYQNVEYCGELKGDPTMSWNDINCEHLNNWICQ
As to the kind of experiment: NanoDSF thermal shift binding study, CD206 CRD4. To be noted: for EC50: CD206 CRD4, 12 μM protein, unfolded fraction evaluated at 53 °C, Hill fit, read-out: EC50 (unfolded fraction vs TS concentration); for Kd: CD206 CRD4, calculated from EC50 with KD=(1−fuo)×(EC50−[P]/2). The protocol: (§1) Thermal shift experiments were performed by using a Prometheus NanoDSF instrument (NanoTemper, Munich, Germany). […] Each ligand concentration was measured in triplicate. Samples were subjected to a controlled temperature increase from 20 to 85 °C at a rate of 1.5 °C per minute. Protein unfolding was monitored by measuring the fluorescence emission ratio at 350 and 330 nm. […] Data were analyzed according to the vertical slice method developed by Bai et al. The unfolded fraction was plotted against the ligand concentration, and EC50 values were determined by fitting the data to the Hill equation using GraphPad Prism 8.0.1. K D values were calculated using eq based on the unfolded fraction in the absence of ligand (f uo) and the total protein concentration ([P]). Associated errors were determined according to the standard error propagation rules. KD=(1−fuo)×(EC50−[P]/2) 1 […]
(§2) In this study, NanoDSF was used to investigate the binding affinity of unconjugated monovalent TSs ManN3 and Man3N3, as well as the trivalent TSs (Man)3N3 and (Man3)3N3 for isolated CRDs of CD206 and CD209. Utilization of isolated CRDs instead of the complete tetrameric and octameric receptors allowed an investigation of the affinity without the potential occurrence of avidity effects taking place on the receptor side. […] The observed binding affinities to the isolated CRDs were in the low millimolar range, with all ligands showing stabilizing effects. […] In the solid-phase assay, the biotinylated CRDs were immobilized on streptavidin-coated plates in a defined orientation, likely enhancing the effective presentation of the binding site. In contrast, NanoDSF measurements were conducted with isolated, solubilized monomeric CRDs without surface- or orientation-related effects. Additionally, steric effects and interactions arising from the linker moiety may also impact binding affinity.
3 NanoDSF study for binding of mono- and trivalent TSs ManN3, Man3N3, (Man)3N3, and (Man3)3N3 to the CRDs of CD206 and CD209. (A) Affinity of mono- and trivalent TSs for CRD4 of CD206. (B) Affinity of mono- and trivalent TSs for CRD of CD209. The unfolded fraction of each CRD at different TS concentrations was determined at 53 °C for CD206 and at 63 °C for CD209. The unfolded fraction was plotted against TS concentration, and EC50 values were determined using GraphPad Prism 8.0.1. The respective K D values were calculated from EC50, as described in section , and are given for each case. […]
6 NanoDSF binding study for mono- and trivalent TSs
6.1 Recombinant protein expression and purification.
6.1.1 Carbohydrate recognition domain 4 of CD206
CRD 4 of CD206 was expressed as described previously.50 Briefly, a pT5T expression vector containing CRD4 of CD206 was transformed into competent Escherichia coli (E. coli) BL21 (DE3) cells. The cells were grown in LB medium containing 100 µg/mL ampicillin at 37 °C and 160 rpm until they reached an optical density (OD₆₀₀) of approximately 0.7. Overexpression was induced by adding 0.4 mM Isopropyl-β-D-thiogalactopyranoside (IPTG) for approximately 2.5 hours at 37 °C. Cells were harvested by centrifugation (10.000 × g at 4 °C for 15 minutes) and resuspended in cold buffer A (10 mM Tris-Cl, pH 7.8). Lysis was performed by thoroughly sonicating the cell pellets. Cell debris and inclusion bodies were collected by centrifugation (18,000 × g at 4 °C for 15 minutes), and the supernatant was discarded.
The inclusion bodies were then solubilized in 100 mL of denaturing buffer B (6 M guanidine-HCl, 100 mM Tris-Cl, pH 7.0). After adding 2-mercaptoethanol (10 µL), the suspension was incubated at 4 °C on ice for 30 minutes. Insoluble impurities were removed by centrifugation (18,000 × g at 4 °C for 30 minutes). The supernatant was refolded by three-step dialysis against 2 L of buffer C (0.5 M NaCl, 25 mM Tris-Cl, pH 7.8, 25 mM CaCl₂) at 4 °C overnight. After centrifugation (18,000 × g at 4 °C for […]

Another assay deals with T2, CD209 CRD (Homo sapiens, UniProt Q9NNX6).
T2 construct: Carbohydrate recognition domain of CD209; inferred from HisTrap/imidazole purification; made in house
T2 sequence (Q9NNX6 263-378 limits assumed): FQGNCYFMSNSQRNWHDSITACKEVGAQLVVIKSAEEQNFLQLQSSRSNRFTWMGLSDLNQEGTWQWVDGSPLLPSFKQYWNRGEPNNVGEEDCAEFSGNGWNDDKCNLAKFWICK
As to the kind of experiment: NanoDSF thermal shift binding study, CD209 CRD. To be noted: for EC50: 12 μM protein, unfolded fraction evaluated at 63 °C, Hill fit, read-out: EC50 (unfolded fraction vs TS concentration); for Kd: calculated from EC50 with KD=(1−fuo)×(EC50−[P]/2). As for the experimental part: as §1, §2
3 NanoDSF study for binding of mono- and trivalent TSs ManN3, Man3N3, (Man)3N3, and (Man3)3N3 to the CRDs of CD206 and CD209. (A) Affinity of mono- and trivalent TSs for CRD4 of CD206. (B) Affinity of mono- and trivalent TSs for CRD of CD209. The unfolded fraction of each CRD at different TS concentrations was determined at 53 °C for CD206 and at 63 °C for CD209. The unfolded fraction was plotted against TS concentration, and EC50 values were determined using GraphPad Prism 8.0.1. The respective K D values were calculated from EC50, as described in section , and are given for each case.
D (150 mM NaCl, 25 mM Tris-Cl, pH 7.8, 25 mM CaCl₂), the bound protein was eluted with buffer E (150 mM NaCl, 25 mM Tris-Cl, pH 7.8, 2.5 mM EDTA).
6.1.2 Carbohydrate recognition domain of CD209
The recombinant CRD of CD209 was expressed as described previously.55 Briefly, a pET-30 expression vector containing the CRD of CD209 was transformed into competent Escherichia coli (E. coli) BL21 (DE3) cells. The cells were grown in LB medium containing 100 µg/mL kanamycin at 37 °C and 160 rpm until they reached an optical density (OD₆₀₀) of approximately 0.7. Overexpression was induced by adding 0.5 mM IPTG for approximately 3 hours at 37 °C. Cells were harvested by centrifugation (10.000 × g at 4 °C for 15 minutes) and resuspended in cold buffer A (25 mM Tris-Cl, 150 mM NaCl, pH 8) supplemented with lysozyme, one tablet of protease inhibitor (cOmplete ™, Roche), and DNase I. Lysis was performed by thoroughly sonicating the resuspended cell pellets. Cell debris and inclusion bodies were collected by centrifugation (20,000 × g at 4 °C for 1 hour), and the supernatant was discarded. The inclusion bodies were resuspended in buffer A supplemented with 2 M urea and 1% Triton X-100. After a second centrifugation step, the inclusion bodies were solubilized in buffer A supplemented with 6 M guanidine hydrochloride and 0.01 % 2-mercaptoethanol. Insoluble impurities were removed by centrifugation (20.000 × g at 4 °C for 1 hour). The resulting supernatant was dialyzed […]

For assay [1], the system named is tetrameric extracellular domains (ECDs) of CD209. Set-up: method as in Li et al. To be noted: TS presented in a trivalent manner, SPR, CD209 ECD; ref Li et al.; read-out: IC50 (binding affinity), trivalent presentation; cited from earlier work.

As to `[N-]=[N+]=NCCOCCOCCOCCn1cc(CO[C@H]2O[C@H](CO)[C@@H](O)[C@H](O)[C@@H]2O)nn1` [ManN3], the EC50 at CD206 CRD4 is 3.1 ± 0.6 mM; on CD209 CRD, more than 79.8 mM. In addition, the figures for the Kd at CD206 CRD4 and at CD209 CRD were 1.3 mM and more than 36.3 mM, respectively.
For `[N-]=[N+]=NCCOCCOCCOCCC(=O)NC(COCCC(=O)NCCOCCOCCOCCn1cc(CO[C@H]2O[C@H](CO)[C@@H](O)[C@H](O)[C@@H]2O)nn1)(COCCC(=O)NCCOCCOCCOCCn1cc(CO[C@H]2O[C@H](CO)[C@@H](O)[C@H](O)[C@@H]2O)nn1)COCCC(=O)NCCOCCOCCOCCn1cc(CO[C@H]2O[C@H](CO)[C@@H](O)[C@H](O)[C@@H]2O)nn1` [(Man)3N3], the Kd was 6.8 mM on CD206 CRD4 and 10.3 mM on CD209 CRD.
Turning to `[N-]=[N+]=NCCOCCOCCOCCn1cc(CO[C@H]2O[C@H](CO[C@H]3O[C@H](CO)[C@@H](O)[C@H](O)[C@@H]3O)[C@@H](O)[C@H](O[C@H]3O[C@H](CO)[C@@H](O)[C@H](O)[C@@H]3O)[C@@H]2O)nn1` [Man3N3], at CD206 CRD4, the EC50 came out at 14.9 ± 0.97 mM and the Kd was 6.9 mM. For the same molecule, on CD209 CRD, the EC50 is 16.4 ± 1.9 mM and the dissociation constant (Kd) was 7.2 mM.
For trimannose, the half-inhibitory concentration (IC50) in assay [1] was 0.0024 mM.
For the molecule `[N-]=[N+]=NCCOCCOCCOCCC(=O)NC(COCCC(=O)NCCOCCOCCOCCn1cc(CO[C@H]2O[C@H](CO[C@H]3O[C@H](CO)[C@@H](O)[C@H](O)[C@@H]3O)[C@@H](O)[C@H](O[C@H]3O[C@H](CO)[C@@H](O)[C@H](O)[C@@H]3O)[C@@H]2O)nn1)(COCCC(=O)NCCOCCOCCOCCn1cc(CO[C@H]2O[C@H](CO[C@H]3O[C@H](CO)[C@@H](O)[C@H](O)[C@@H]3O)[C@@H](O)[C@H](O[C@H]3O[C@H](CO)[C@@H](O)[C@H](O)[C@@H]3O)[C@@H]2O)nn1)COCCC(=O)NCCOCCOCCOCCn1cc(CO[C@H]2O[C@H](CO[C@H]3O[C@H](CO)[C@@H](O)[C@H](O)[C@@H]3O)[C@@H](O)[C@H](O[C@H]3O[C@H](CO)[C@@H](O)[C@H](O)[C@@H]3O)[C@@H]2O)nn1` [(Man3)3N3], the dissociation constant Kd on CD206 CRD4 was 3.1 mM; at CD209 CRD it was more than 26.6 mM.

The values above are taken from article PMC12606641, “Surface Density of Mono- and Trivalent High-Mannan-Derived Targeting Structures with Different Affinities Impacts Cellular Uptake of Human Serum Albumin-Derived Nanocarriers” (Biomacromolecules, 2025).
